Assay results reported in ChEMBL document CHEMBL4742386, “4-oxo-3,4-dihydro-1,2,3-benzotriazine derivatives as modulators of gpr139” (2019).

What was measured:
Assay type in all cases: functional
[1] = Induction of c-Fos expression in C57BL/6 mouse assessed as cFos cell count in brain at 3 mg/kg for 1 hr by immunohistochemistry (reference value: 470)
[2] = Induction of c-Fos expression in C57BL/6 mouse assessed as cFos cell count in brain at 0.03 mg/kg for 1 hr by immunohistochemistry (reference value: 470)
[3] = Induction of c-Fos expression in C57BL/6 mouse assessed as cFos cell count in brain at 0.3 mg/kg for 1 hr by immunohistochemistry (reference value: 470)
[4] = Induction of c-Fos expression in C57BL/6 mouse assessed as cFos cell count in brain at 0.3 mg/kg for 4 hrs by immunohistochemistry (reference value: 470)
[5] = Induction of c-Fos expression in C57BL/6 mouse assessed as cFos cell count in brain at 0.1 mg/kg for 1 hr by immunohistochemistry (reference value: 470)
[6] = Induction of c-Fos expression in C57BL/6 mouse assessed as cFos cell count in brain at 0.3 mg/kg for 2 hrs by immunohistochemistry (reference value: 470)
[7] = Induction of c-Fos expression in C57BL/6 mouse assessed as cFos cell count in brain at 0.1 mg/kg for 5 days by immunohistochemistry (reference value: 352 to 450); details: time 5 day
[8] = Induction of c-Fos expression in C57BL/6 mouse assessed as cFos cell count in brain at 0.03 mg/kg by immunohistochemistry (reference value: 267)
[9] = Induction of c-Fos expression in C57BL/6 mouse assessed as cFos cell count in brain at 0.1 mg/kg by immunohistochemistry (reference value: 267)
[10] = Induction of c-Fos expression in C57BL/6 mouse assessed as cFos cell count in brain at 3 mg/kg for 1 hr by immunohistochemistry (reference value: 413.7)
[11] = Induction of c-Fos expression in C57BL/6 mouse assessed as cFos cell count in brain at 0.01 mg/kg by immunohistochemistry (reference value: 267)
[12] = Induction of c-Fos expression in C57BL/6 mouse assessed as cFos cell count in brain at 0.1 mg/kg for 1 days by immunohistochemistry (reference value: 352); details: time 1 day
[13] = Induction of c-Fos expression in C57BL/6 mouse assessed as cFos cell count in brain at 0.1 mg/kg for 10 days by immunohistochemistry (reference value: 450); details: time 10 day
[14] = Induction of c-Fos expression in C57BL/6 mouse assessed as cFos cell count in brain at 1 mg/kg by immunohistochemistry (reference value: 267)
[15] = Induction of c-Fos expression in C57BL/6 mouse assessed as cFos cell count in brain at 0.1 mg/kg for 1 hr by immunohistochemistry (reference value: 413.7)
[16] = Induction of c-Fos expression in C57BL/6 mouse assessed as cFos cell count in brain at 0.3 mg/kg for 4 hrs by immunohistochemistry (reference value: 413.7)
[17] = Induction of c-Fos expression in C57BL/6 mouse assessed as cFos cell count in brain at 0.3 mg/kg for 2 hrs by immunohistochemistry (reference value: 413.7)
[18] = Induction of c-Fos expression in C57BL/6 mouse assessed as cFos cell count in brain at 0.3 mg/kg for 1 hr by immunohistochemistry (reference value: 413.7)
[19] = Induction of c-Fos expression in C57BL/6 mouse assessed as cFos cell count in brain at 0.3 mg/kg by immunohistochemistry (reference value: 267)

SMILES	Activity [1]	Activity [2]	Activity [3]	Activity [4]	Activity [5]	Activity [6]	Activity [7]	Activity [8]	Activity [9]	Activity [10]	Activity [11]	Activity [12]	Activity [13]	Activity [14]	Activity [15]	Activity [16]	Activity [17]	Activity [18]	Activity [19]
COc1cccc2nnn(CC(=O)N[C@@H](C)c3ccc(C)cc3)c(=O)c12	2023	1628	2458	865	2243	2777													
C[C@H](NC(=O)Cn1nnc2ccccc2c1=O)c1ccc(OC(F)(F)F)cc1 [ZELATRIAZIN]							1928	986.3	1381	2365	1376	1486	1684	1368	787.7	2170	1400	1343	1408
